We go through nine molecules from DBAASP.

Among the test systems are Streptococcus uberis; Escherichia coli; Bacillus cereus; Pasteurella multocida; Leuconostoc lactis; Staphylococcus aureus; Listeria innocua; Micrococcus luteus; Acinetobacter baumannii; Pseudomonas aeruginosa; Escherichia coli UB1005.
Holding throughout (experiment): ≥ marks a high value that may be exact or a test limit, other limits are often not marked, values filed in µg/mL are converted to µM
Assay [1] deals with Escherichia coli DH5alpha.
For assay [2], the system named is Micrococcus luteus ATCC 4698.
Assay [3] concerns Staphylococcus epidermidis ATCC 12228.
In assay [4] the test system is Staphylococcus aureus ATCC 6538.
For assay [5], the system named is Staphylococcus epidermidis.
Assay [6] relates to Escherichia coli ATCC 25922.
Assay [7] relates to Salmonella enterica subsp. enterica serovar Typhimurium C77-31.
The subject of assay [8] is Staphylococcus aureus ATCC 25923.
Assay [9] has as its system Staphylococcus aureus ATCC 29213.

Converted amounts (≈) assume the structure as drawn. Where only a bound is given, the exact number is not on record here.

`CC(C)C[C@H](NC(=O)[C@H](C)NC(=O)CNC(=O)[C@H](CC(C)C)NC(=O)[C@@H](N)Cc1ccccc1)C(=O)N[C@@H](Cc1ccccc1)C(=O)N[C@@H](CCCCN)C(=O)N[C@@H](C)C(=O)N[C@@H](CC(C)C)C(=O)N[C@@H](CO)C(=O)N[C@@H](CCCCN)C(=O)N[C@@H](CC(C)C)C(=O)N[C@H](C(=O)O)C(C)C` [FLGALFKALSKLV]: the MIC is no less than 35.5 µM in assay [1], 4.27 µM (≈ 6 µg/mL) in assay [2], 12.8 µM (≈ 18 µg/mL) in [3] and 7.82 µM (≈ 11 µg/mL) in assay [4].

For the molecule `CC(C)C[C@H](NC(=O)[C@H](CC(C)C)NC(=O)[C@H](CCCCN)NC(=O)[C@H](CO)NC(=O)[C@H](CC(C)C)NC(=O)[C@H](C)NC(=O)[C@H](CCCCN)NC(=O)[C@H](Cc1ccccc1)NC(=O)[C@H](CC(C)C)NC(=O)[C@H](C)NC(=O)CNC(=O)[C@@H](NC(=O)[C@@H](N)Cc1ccccc1)C(C)C)C(=O)O` [FVGALFKALSKLL], the MIC is no less than 35.5 µM in assay [1], 4.27 µM (≈ 6 µg/mL) in assay [2], 15.6 µM (≈ 22 µg/mL) in assay [3] and 8.53 µM (≈ 12 µg/mL) in assay [4].

As to `CC[C@H](C)[C@H](NC(=O)[C@@H](NC(=O)[C@H](CCCCN)NC(=O)[C@H](C)NC(=O)[C@@H](NC(=O)[C@H](CCCCN)NC(=O)[C@H](CCCCN)NC(=O)[C@@H](NC(=O)[C@@H](NC(=O)[C@H](CCCCN)NC(=O)[C@H](Cc1ccccc1)NC(=O)[C@H](CC(C)C)NC(=O)CN)C(C)C)[C@@H](C)CC)C(C)C)C(C)C)C(=O)N[C@@H](CCCCN)C(=O)N[C@@H](CCCCN)C(=O)N[C@@H](CC(C)C)C(N)=O` [GLFKVIKKVAKVIKKL], the MIC with Streptococcus uberis is 27.6 µM (≈ 50 µg/mL); against Escherichia coli, 55.2 µM (≈ 99.9 µg/mL); against Bacillus cereus, 27.6 µM (≈ 50 µg/mL); with Pasteurella multocida, no less than 55.2 µM; in the assay with Leuconostoc lactis it was 3.31 µM (≈ 6 µg/mL); in the assay on Staphylococcus aureus, 27.6 µM (≈ 50 µg/mL). In addition, the MIC was 6.62 µM (≈ 12 µg/mL) in [5], 13.8 µM (≈ 25 µg/mL) against Listeria innocua and 13.8 µM (≈ 25 µg/mL) against Micrococcus luteus.

As for `CC[C@H](C)[C@H](NC(=O)[C@@H](NC(=O)[C@H](C)NC(=O)[C@@H](NC(=O)[C@@H](NC(=O)[C@H](Cc1cnc[nH]1)NC(=O)[C@H](C)NC(=O)[C@H](CC(C)C)NC(=O)[C@@H](NC(=O)[C@H](Cc1cnc[nH]1)NC(=O)[C@H](CCCCN)NC(=O)[C@H](C)NC(=O)[C@@H](NC(=O)[C@H](CO)NC(=O)CNC(=O)[C@H](CC(C)C)NC(=O)[C@@H](NC(=O)[C@H](CO)NC(=O)[C@H](CC(C)C)NC(=O)[C@H](CC(C)C)NC(=O)CN)C(C)C)C(C)C)C(C)C)C(C)C)C(C)C)C(C)C)C(=O)N[C@@H](C)C(=O)N[C@@H](CCC(=O)O)C(=O)N[C@@H](Cc1cnc[nH]1)C(=O)N[C@@H](CC(C)C)C(N)=O` [GLLSVLGSVAKHVLAHVVAVIAEHL], the MIC was no less than 39.5 µM against Streptococcus uberis; greater than 39.5 µM in the assay on Escherichia coli; no less than 39.5 µM against Bacillus cereus; no less than 39.5 µM in the assay on Pasteurella multocida; 9.87 µM (≈ 25 µg/mL) with Leuconostoc lactis; greater than 39.5 µM with Staphylococcus aureus. The MIC (in assay [5]; against Listeria innocua; in the assay on Micrococcus luteus) was no less than 39.5 µM in each case.

Turning to `CC[C@H](C)[C@H](NC(=O)[C@H](CC(C)C)NC(=O)[C@H](CC(=O)O)NC(=O)CNC(=O)[C@@H](NC(=O)CN)C(C)C)C(=O)N[C@@H](CCCN=C(N)N)C(=O)N[C@@H](CCCCN)C(=O)N[C@@H](C)C(=O)N[C@H](C(=O)N[C@@H](CO)C(=O)N[C@H](C(=O)N[C@H](C(=O)N[C@@H](CCCCN)C(=O)N[C@@H](CC(N)=O)C(=O)N[C@H](C(=O)N[C@H](C(N)=O)C(C)C)[C@@H](C)CC)[C@@H](C)CC)C(C)C)C(C)C` [GVGDLIRKAVSVIKNIV], the MIC against Streptococcus uberis is 7.02 µM (≈ 12.5 µg/mL); in the assay on Escherichia coli, greater than 56.1 µM; in the assay on Bacillus cereus it was 14 µM (≈ 25 µg/mL); in the assay with Pasteurella multocida, no less than 56.1 µM; with Leuconostoc lactis it was 1.68 µM (≈ 3 µg/mL); in the assay on Staphylococcus aureus it was 28.1 µM (≈ 50 µg/mL). Further, the figures for the minimal inhibitory concentration (MIC) (in assay [5]; with Listeria innocua) were 7.02 µM (≈ 12.5 µg/mL) and 14 µM (≈ 25 µg/mL), respectively.

With `CC[C@H](C)[C@H](NC(=O)[C@@H](NC(=O)CN)C(C)C)C(=O)N[C@@H](CC(=O)O)C(=O)N[C@@H](C)C(=O)N[C@@H](C)C(=O)N[C@@H](CCCCN)C(=O)N[C@@H](CCCCN)C(=O)N[C@H](C(=O)N[C@H](C(=O)N[C@@H](CC(N)=O)C(=O)N[C@H](C(=O)N[C@@H](CC(C)C)C(=O)N[C@@H](C)C(=O)N[C@@H](CC(N)=O)C(=O)N[C@@H](CC(C)C)C(=O)N[C@@H](Cc1ccccc1)C(N)=O)C(C)C)C(C)C)C(C)C` [GVIDAAKKVVNVLANLF], the MIC in the assay with Streptococcus uberis was 28.2 µM (≈ 50 µg/mL); with Escherichia coli it was greater than 56.5 µM; against Bacillus cereus, no less than 56.5 µM; in the assay on Pasteurella multocida, no less than 56.5 µM; against Leuconostoc lactis, 6.78 µM (≈ 12 µg/mL); against Staphylococcus aureus, greater than 56.5 µM. Further, the minimal inhibitory concentration (MIC) (in [5]; against Listeria innocua; in the assay with Micrococcus luteus) was no less than 56.5 µM throughout.

Consider `CC(C)C[C@H](NC(=O)[C@H](CCCCN)NC(=O)[C@H](Cc1c[nH]c2ccccc12)NC(=O)[C@H](CCCCN)NC(=O)[C@H](CC(C)C)NC(=O)[C@H](CCCCN)NC(=O)[C@H](Cc1c[nH]c2ccccc12)NC(=O)[C@H](CCCCN)NC(=O)[C@H](CC(C)C)NC(=O)[C@H](CCCCN)NC(=O)[C@@H](N)Cc1c[nH]c2ccccc12)C(=O)N[C@@H](CCCCN)C(N)=O` [WKLKWKLKWKLK], for which the MIC is 2.83 µM (≈ 4.76 µg/mL) against Acinetobacter baumannii; 2 µM (≈ 3.37 µg/mL) with Escherichia coli; 4 µM (≈ 6.74 µg/mL) in assay [6]; 2 µM (≈ 3.37 µg/mL) in assay [7]; 2 µM (≈ 3.37 µg/mL) in assay [8]; 4 µM (≈ 6.74 µg/mL) with Pseudomonas aeruginosa. The MIC in the assay on Escherichia coli UB1005 stood at 4 µM (≈ 6.74 µg/mL); in the assay on Staphylococcus aureus, 2 µM (≈ 3.37 µg/mL); in assay [3] it was 2 µM (≈ 3.37 µg/mL); in assay [9], 2 µM (≈ 3.37 µg/mL).

Turning to `CC(C)C[C@H](NC(=O)[C@H](CCCN=C(N)N)NC(=O)[C@H](Cc1c[nH]c2ccccc12)NC(=O)[C@H](CCCN=C(N)N)NC(=O)[C@@H](NC(=O)[C@H](CCCCN)NC(=O)[C@H](Cc1c[nH]c2ccccc12)NC(=O)[C@H](CCCN=C(N)N)NC(=O)[C@H](CC(C)C)NC(=O)[C@H](CCCN=C(N)N)NC(=O)[C@@H](N)Cc1c[nH]c2ccccc12)[C@@H](C)O)C(=O)N[C@@H](CCCCN)C(N)=O` [WRLRWKTRWRLK], the MIC in the assay with Acinetobacter baumannii was 4 µM (≈ 7.14 µg/mL); against Escherichia coli it was 2.83 µM (≈ 5.05 µg/mL); in [7] it was 2 µM (≈ 3.57 µg/mL); in assay [8], 2 µM (≈ 3.57 µg/mL); in the assay with Pseudomonas aeruginosa, 8 µM (≈ 14.3 µg/mL); against Escherichia coli UB1005 it was 2 µM (≈ 3.57 µg/mL). Further, the MIC in the assay with Staphylococcus aureus came to 2 µM (≈ 3.57 µg/mL); in assay [3], 4 µM (≈ 7.14 µg/mL).

For the molecule `CC(C)C[C@H](NC(=O)[C@H](CCCN=C(N)N)NC(=O)[C@H](Cc1c[nH]c2ccccc12)NC(=O)[C@H](CCCN=C(N)N)NC(=O)[C@H](CC(C)C)NC(=O)[C@H](CCCN=C(N)N)NC(=O)[C@H](Cc1c[nH]c2ccccc12)NC(=O)[C@H](CCCN=C(N)N)NC(=O)[C@H](CC(C)C)NC(=O)[C@H](CCCN=C(N)N)NC(=O)[C@@H](N)Cc1c[nH]c2ccccc12)C(=O)N[C@@H](CCCN=C(N)N)C(N)=O` [WRLRWRLRWRLR], the MIC against Acinetobacter baumannii is 2.83 µM (≈ 5.24 µg/mL); in the assay with Escherichia coli, 2 µM (≈ 3.7 µg/mL); in assay [6] it was 4 µM (≈ 7.41 µg/mL); in assay [7], 2 µM (≈ 3.7 µg/mL); in assay [8], 2 µM (≈ 3.7 µg/mL); against Pseudomonas aeruginosa, 4 µM (≈ 7.41 µg/mL). Moreover, the MIC is 2 µM (≈ 3.7 µg/mL) with Escherichia coli UB1005, 1 µM (≈ 1.85 µg/mL) in the assay on Staphylococcus aureus, 2 µM (≈ 3.7 µg/mL) in assay [3] and 1 µM (≈ 1.85 µg/mL) in assay [9].

As a reminder, the MIC is the lowest concentration found to suppress growth. Read a low MIC as greater potency.
